Laboratory results from US8492614B2, “Plant biochemical systems and uses thereof” (The Board of Trustees of the University of Illinois, priority 2007, dated 2013).
Entries after “also recorded” stand apart in the source; their conditions may differ.

Legend:
[1] = system: etiolated Arabidopsis seedlings; assay: Cotyledon natural fluorescence by deconvoluting microscopy; assay type: in vivo; conditions: hormone applied to etiolated cotyledons; 24 h; 1.0 μM ABA, 500 μM JA
Method: Fluorescent images were obtained of living unfixed seedlings 24 h post BL or ABA treatment as described in the “Plant Growth and Preparation of Tissue” section. Optical sectioning was achieved by using a Zeiss Axiovert 200M microscope (Carl Zeiss), equipped with ApoTome (collected by grid projection), and a digital camera and the 4#,6-diamino-phenylindole, fluorescein isothiocyanate, and Texas Red filter sets (Chroma). Photographs of whole cotyledon fluorescence were snapped on the same microscope set up, minus the apoTome setting.
The preparation of whole cell extracts from the areal portions of the seedlings for the quantification of Phe levels and PD1 activity levels is described in (Warpeha et al., Plant Physiol. 143:1590-1600, 2007). Phe concentration is determined by HPLC. […] Natural fluorescence of the cotyledons is visualized and quantitated by deconvoluting microscopy using a “DAPI-Long Pass” filter which allows excitation between 300-380 nm and emits with a cutoff […] 400 nm.
If the Phe produced by activated PD1 is necessary for the ability of young etiolated seedlings to respond to UV-B, salt or heat stress, then it is possible that the addition of exogenous Phe (effectively cross feeding Phe) could restore a wild type response to GCR1, GPA1 and PD1 mutants when assayed for cotyledon fluorescence and the ability to survive sub-lethal levels of UV-C. To determine if exogenous Phe can restore wild type responses to GCR1, GPA, and PD1 mutants, 1 mM Phe is added to the top agar during planting and the experiment described above specifically testing for cotyledon surface fluorescence and the ability to survive sub-lethal levels of UV-C is repeated. Serine and […] are used as negative controls in these assays.
The experiments described above for examining if GCR1, GPA1 and PD1 are required for young etiolated seedlings to respond to UV-B, salt or heat stress are performed but with ABA, ACC, JA and SA substituting for UV-B, salt and heat. For these experiments, ABA is tested at 1.0 μM dissolved in ethanol and applied as an atomized mist. […]

PD1 [2] = assay: Cytosolic PD1 activity after ABA treatment of etiolated seedlings; assay type: in vivo, Arabidopsis; conditions: ABA treatment of etiolated wild type
Excerpt: Activated GPA1 has a specific physical interaction with PD1 that results in a significant increase in PD1 activity. PD1 is the only member of the PD family that is expressed in etiolated Arabidopsis. […] The increase in PD1 activity in response to BL or ABA treatment also requires GCR1. BL Irradiation or ABA treatment of pd1, gcr1 and gpa1 T-DNA insertion mutants result in none of these events described for wt. We conclude that GCR1, GPA1 and PD1 form a signaling chain that is responsible for ABA and BL induced synthesis of phenylpyruvate, phenylalanine and a series of UV absorbing products from the phenylpropanoid pathway. In etiolated seedlings phenylalanine is synthesized via a phenylpyruvate intermediate, much like in bacteria and fungi, and not via an arogenate pathway (Warpeha et al., Plant Physiol. 140:844-855).
All plants are returned to complete darkness for two hours after which cytosolic extracts are prepared and assayed as described infra.

Lhcb expression = assay: Lhcb RNA levels by northern analysis after ABA treatment of etiolated seedlings; assay type: in vivo, Arabidopsis; conditions: 800 nM ABA
Method: Six-d-old dark-grown Arabidopsis seedlings col wild type or insertion mutants were grown on 0.8% agarose plates containing only 0.5× Murashige and Skoog media as described in Lapik and Kaufman (2003). The growth media contains no additional sugar, hormones, vitamins or other nutrients. Seedlings were irradiated with a single pulse (10 s) of low fluence BL (total fluence of 10^2 μmol m^−2); or a single pulse (100 s) of saturation fluence BL (total fluence of 10^4 μmol m^−2); or no light (DK), and/or, treated with 800 nM ABA dissolved in ethanol, or ethanol alone, placed back in the dark for two h after which total RNA was extracted and used for northern blot analysis (Lapik and Kaufman, 2003). Lhcb and rDNA probes used, quantitation methods, and means of normalization to rRNA levels are described elsewhere (Marrs and Kaufman, (1991) Planta 183: 327-333). […] All induction data is correct for loading through the quantitation of the rRNA as described (Warpeha and Kaufman, (1990) Planta 182: 553-558). […] Real time quantitative PCR (qPCR) was used to measure the level of Lhcb RNA induction in response to a single pulse of low fluence blue light as a confirmation of the Northern blot analysis methods. […] The qPCR-derived information (4 different RNA sets of Dark and BL-treated) data was analyzed using (ΔΔCoT). […]

[3] = Stability of absorbance spectra of cell free extracts with or without phenylalanine; assay type: physicochemical, Arabidopsis; conditions: cell free extracts in buffer; 24 h, room temperature or +4° C., lab lighting
Method: Cell free extracts were left at room temperature for 24 h after a 10^5 μmol m^−2 treatment of UV (366 nm) in lab lighting (which is fluorescent).

PD1 [4] = molecular target: T1, PD1 (Arabidopsis thaliana, UniProt Q9ZUY3); assay: In vitro GPA1-PD1 activation assay; assay type: biochemical; conditions: compared with inactive (GDP or GDPβS) or no GPA1
T1 construct: Full-length GPA1 and PD1 templates were amplified, prepared, and purified by the methods described; made in house; host or cells: cell-free: TNT T7 coupled wheat germ extract system (Promega)
T1 sequence (Q9ZUY3 25-424): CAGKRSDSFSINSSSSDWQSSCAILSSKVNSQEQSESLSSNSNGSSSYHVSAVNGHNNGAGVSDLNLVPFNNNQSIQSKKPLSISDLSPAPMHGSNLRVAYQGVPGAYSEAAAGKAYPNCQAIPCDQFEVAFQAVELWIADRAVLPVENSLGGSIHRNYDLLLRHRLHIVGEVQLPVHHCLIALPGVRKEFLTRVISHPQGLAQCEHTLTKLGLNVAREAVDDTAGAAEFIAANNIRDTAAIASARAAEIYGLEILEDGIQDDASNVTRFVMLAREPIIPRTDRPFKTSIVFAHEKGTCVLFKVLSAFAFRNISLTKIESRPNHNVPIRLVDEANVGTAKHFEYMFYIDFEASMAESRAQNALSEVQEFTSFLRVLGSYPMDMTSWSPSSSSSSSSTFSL
T1 sequence (P18064 1-383 partner): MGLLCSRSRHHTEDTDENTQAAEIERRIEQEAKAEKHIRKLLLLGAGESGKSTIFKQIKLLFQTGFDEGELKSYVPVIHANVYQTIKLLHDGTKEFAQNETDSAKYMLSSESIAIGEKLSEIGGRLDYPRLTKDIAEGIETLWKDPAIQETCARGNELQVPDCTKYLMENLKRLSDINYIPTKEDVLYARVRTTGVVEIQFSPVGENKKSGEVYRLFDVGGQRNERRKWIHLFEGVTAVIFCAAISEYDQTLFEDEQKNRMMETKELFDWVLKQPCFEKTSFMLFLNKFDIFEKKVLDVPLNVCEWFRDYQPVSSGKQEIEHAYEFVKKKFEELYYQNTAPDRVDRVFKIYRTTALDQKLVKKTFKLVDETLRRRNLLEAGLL
Method: Full-length GPA1 and PD1 templates were amplified, prepared, and purified by the methods described (Lapik and Kaufman, 2003). GPA1 and PD1 proteins were individually produced by coupled in vitro transcription/translation using TNT T7 coupled wheat germ extract system (Promega). In vitro association assays were conducted by mixing approximately equimolar concentrations of GPA1 with PD1 in PD assay buffer at 4° C. with modifications for plants: 50 mM K2PO4 pH 7.5, 1.0 mM dithiothreitol, […], and 0.5% protease inhibitor cocktail for plants. Activated GPA1 was achieved by preincubation with […] (a nonhydrolyzable GTP analog). Inactivated GPA1 was achieved by preincubation with GDP, or GDPγS (a nonhydrolyzable GDP analog). […] Reaction mixtures were stopped at time zero and various time points thereafter by adding 0.5 volume of 1N NaOH.
The increase in activity occurs quickly as approximately 90% of the measured increase in activity occurs within the first 10 min of incubation.

## CC1=CC(=O)CC(C)(C)[C@@]1(O)/C=C/C(C)=C\C(=O)O [ABA, abscisic acid]
[1]
  accumulation of UV- and BL-absorbing fluorescent material in cotyledons: phenotype identical to that observed in wild-type seedlings for BL irradiation; also recorded: response pattern is identical to that of UV-B, salt and heat
PD1 [2]
  cytosolic PD1 activity: increase in cytosolic PD1 activity
Lhcb expression; gcr1, gpa1, prn1, nf-y-b9, nf-y-a5 mutants
  Lhcb RNA accumulation in mutant seedlings: fails to induce Lhcb RNA accumulation
Lhcb expression; six-d-old etiolated wild type
  Lhcb expression in wild type seedlings: induces Lhcb expression

## CC/C=C\C[C@H]1C(=O)CC[C@@H]1CC(=O)O [JA, jasmonic acid, reference compound]
[1]
  accumulation of UV- and BL-absorbing fluorescent material in cotyledons: response pattern is identical to that of UV-B, salt and heat

## CSCC[C@H](N)C(=O)O [L-methionine, reference compound]
[3]
  stability of the extract solution (absorbance spectra, pigments) over time: did not increase stability of the solution

B1: activated GPA1: Arabidopsis G-protein Gα subunit made by in vitro transcription/translation, activated with GTPγS (protein, UniProt P18064 2-383, looked up)
Guanine nucleotide-binding …: GLLCSRSRHHTEDTDENTQAAEIERRIEQEAKAEKHIRKLLLLGAGESGKSTIFKQIKLLFQTGFDEGELKSYVPVIHANVYQTIKLLHDGTKEFAQNETDSAKYMLSSESIAIGEKLSEIGGRLDYPRLTKDIAEGIETLWKDPAIQETCARGNELQVPDCTKYLMENLKRLSDINYIPTKEDVLYARVRTTGVVEIQFSPVGENKKSGEVYRLFDVGGQRNERRKWIHLFEGVTAVIFCAAISEYDQTLFEDEQKNRMMETKELFDWVLKQPCFEKTSFMLFLNKFDIFEKKVLDVPLNVCEWFRDYQPVSSGKQEIEHAYEFVKKKFEELYYQNTAPDRVDRVFKIYRTTALDQKLVKKTFKLVDETLRRRNLLEAGLL
modifications: GTPγS-bound
PD1 [4]
  increase in PD1 activity: 2 fold
